# Reference: ChEMBL document CHEMBL3045835, “Comparative study of conventional and microwave-assisted synthesis of some Schiff bases and their potential as antimicrobial agents” (2012)
# How the values were obtained:
# Type in all cases: functional
# Pseudomonas aeruginosa [1] = assay: Antibacterial activity against Pseudomonas aeruginosa MTCC 424 at 100 ug/ml after 18 hr by cup-plate method; details: MTCC 424, 18 h, read-out: DIZ
# Pseudomonas fluorescens [2] = assay: Antibacterial activity against Pseudomonas fluorescens MTCC 2421 at 1500 ug/ml after 18 hr by cup-plate method; details: MTCC 2421, 18 h, read-out: DIZ
# Staphylococcus aureus [3] = assay: Antibacterial activity against Staphylococcus aureus MTCC 1430 after 24 hr by broth dilution method; details: MTCC 1430, 24 h
# Escherichia coli = assay: Antibacterial activity against Escherichia coli MTCC 1573 at 200 ug/ml after 18 hr by cup-plate method; details: MTCC 1573, 18 h, read-out: DIZ
# Aspergillus niger [4] = assay: Antifungal activity against Aspergillus niger MTCC 2546 at 1500 ug/ml after 18 hr by cup-plate method; details: MTCC 2546, 18 h, read-out: DIZ
# Pseudomonas aeruginosa [5] = assay: Antibacterial activity against Pseudomonas aeruginosa MTCC 424 at 1500 ug/ml after 18 hr by cup-plate method; details: MTCC 424, 18 h, read-out: DIZ
# Micrococcus luteus [6] = assay: Antibacterial activity against Micrococcus luteus MTCC 1538 at 200 ug/ml after 18 hr by cup-plate method; details: MTCC 1538, 18 h, read-out: DIZ
# Bacillus subtilis [7] = assay: Antibacterial activity against Bacillus subtilis MTCC 441 at 1000 ug/ml after 18 hr by cup plate method; details: MTCC 441, 18 h, read-out: DIZ
# Aspergillus niger [8] = assay: Antifungal activity against Aspergillus niger MTCC 2546 at 500 ug/ml after 18 hr by cup-plate method; details: MTCC 2546, 18 h, read-out: DIZ
# Pseudomonas fluorescens [9] = assay: Antibacterial activity against Pseudomonas fluorescens MTCC 2421 at 1000 ug/ml after 18 hr by cup-plate method; details: MTCC 2421, 18 h, read-out: DIZ
# Bacillus subtilis [10] = assay: Antibacterial activity against Bacillus subtilis MTCC 441 after 24 hr by broth dilution method; details: MTCC 441, 24 h
# Pseudomonas aeruginosa [11] = assay: Antibacterial activity against Pseudomonas aeruginosa MTCC 424 after 24 hr by broth dilution method; details: MTCC 424, 24 h
# Bacillus pumilus [12] = assay: Antibacterial activity against Bacillus pumilus MTCC 1456 at 1500 ug/ml after 18 hr by cup-plate method; details: MTCC 1456, 18 h, read-out: DIZ
# Bacillus pumilus [13] = assay: Antibacterial activity against Bacillus pumilus MTCC 1456 after 24 hr by broth dilution method; details: MTCC 1456, 24 h
# Bacillus subtilis [14] = assay: Antibacterial activity against Bacillus subtilis MTCC 441 at 100 ug/ml after 18 hr by cup plate method; details: MTCC 441, 18 h, read-out: DIZ
# Pseudomonas fluorescens [15] = assay: Antibacterial activity against Pseudomonas fluorescens MTCC 2421 after 24 hr by broth dilution method; details: MTCC 2421, 24 h
# Penicillium chrysogenum = assay: Antifungal activity against Penicillium chrysogenum MTCC 161 at 1500 ug/ml after 18 hr by cup-plate method; details: MTCC 161, 18 h, read-out: DIZ
# Staphylococcus aureus [16] = assay: Antibacterial activity against Staphylococcus aureus MTCC 1430 at 500 ug/ml after 18 hr by cup-plate method; details: MTCC 1430, 18 h, read-out: DIZ
# Pseudomonas aeruginosa [17] = assay: Antibacterial activity against Pseudomonas aeruginosa MTCC 424 at 500 ug/ml after 18 hr by cup-plate method; details: MTCC 424, 18 h, read-out: DIZ
# Bacillus pumilus [18] = assay: Antibacterial activity against Bacillus pumilus MTCC 1456 at 100 ug/ml after 18 hr by cup-plate method; details: MTCC 1456, 18 h, read-out: DIZ
# Micrococcus luteus [19] = assay: Antibacterial activity against Micrococcus luteus MTCC 1538 at 1000 ug/ml after 18 hr by cup-plate method; details: MTCC 1538, 18 h, read-out: DIZ
# Pseudomonas fluorescens [20] = assay: Antibacterial activity against Pseudomonas fluorescens MTCC 2421 at 100 ug/ml after 18 hr by cup-plate method; details: MTCC 2421, 18 h, read-out: DIZ
# Pseudomonas fluorescens [21] = assay: Antibacterial activity against Pseudomonas fluorescens MTCC 2421 at 500 ug/ml after 18 hr by cup-plate method; details: MTCC 2421, 18 h, read-out: DIZ
# Micrococcus luteus [22] = assay: Antibacterial activity against Micrococcus luteus MTCC 1538 at 100 ug/ml after 18 hr by cup-plate method; details: MTCC 1538, 18 h, read-out: DIZ
# Bacillus subtilis [23] = assay: Antibacterial activity against Bacillus subtilis MTCC 441 at 500 ug/ml after 18 hr by cup plate method; details: MTCC 441, 18 h, read-out: DIZ
# Staphylococcus aureus [24] = assay: Antibacterial activity against Staphylococcus aureus MTCC 1430 at 200 ug/ml after 18 hr by cup-plate method; details: MTCC 1430, 18 h, read-out: DIZ
smiles,measurement,setting,value
C(=N\c1nc[nH]n1)/c1ccco1,zone of inhibition at 100 µg/mL,Pseudomonas aeruginosa [1],10 mm
same,zone of inhibition at 1500 µg/mL,Pseudomonas fluorescens [2],23 mm
same,MIC,Staphylococcus aureus [3],600 µg/mL
same,zone of inhibition at 200 µg/mL,Escherichia coli,13 mm
same,zone of inhibition at 1500 µg/mL,Aspergillus niger [4],23 mm
same,zone of inhibition at 1500 µg/mL,Pseudomonas aeruginosa [5],21 mm
same,zone of inhibition at 200 µg/mL,Micrococcus luteus [6],16 mm
same,zone of inhibition at 1000 µg/mL,Bacillus subtilis [7],17 mm
same,zone of inhibition at 500 µg/mL,Aspergillus niger [8],18 mm
same,zone of inhibition at 1000 µg/mL,Pseudomonas fluorescens [9],20 mm
same,MIC,Bacillus subtilis [10],300 µg/mL
same,MIC,Pseudomonas aeruginosa [11],500 µg/mL
same,zone of inhibition at 1500 µg/mL,Bacillus pumilus [12],20 mm
same,MIC,Bacillus pumilus [13],300 µg/mL
same,zone of inhibition at 100 µg/mL,Bacillus subtilis [14],11 mm
same,MIC,Pseudomonas fluorescens [15],300 µg/mL
same,zone of inhibition at 1500 µg/mL,Penicillium chrysogenum,21 mm
same,zone of inhibition at 500 µg/mL,Staphylococcus aureus [16],14 mm
same,zone of inhibition at 500 µg/mL,Pseudomonas aeruginosa [17],13 mm
same,zone of inhibition at 100 µg/mL,Bacillus pumilus [18],11 mm
same,zone of inhibition at 1000 µg/mL,Micrococcus luteus [19],21 mm
same,zone of inhibition at 100 µg/mL,Pseudomonas fluorescens [20],13 mm
same,zone of inhibition at 500 µg/mL,Pseudomonas fluorescens [21],18 mm
same,zone of inhibition at 100 µg/mL,Micrococcus luteus [22],12 mm
same,zone of inhibition at 500 µg/mL,Bacillus subtilis [23],16 mm
same,zone of inhibition at 200 µg/mL,Staphylococcus aureus [24],12 mm
